Source: patent US8710045B2, “Agents for preventing and treating disorders involving modulation of the ryanodine receptors” (The Trustees of Columbia University in the City of New York, priority 2004, dated 2014)
Several values for one entry are separate records, joined by “and”; a condition that tells them apart may be missing. Equal values may be shown once.

Experiments:
Wild-type mice = experiment: Chronic heart failure after myocardial infarction (LAD ligation) in wild-type mice; assay type: in vivo, mouse; conditions: plasma concentration 200 nM, vs placebo
Description: Wild-type mice are subjected to permanent ligation of the left anterior descending coronary artery resulting in myocardial infarction. Seven days following myocardial infartion, mice are treated with S36 (plasma concentration 200 nM) or placebo.

FDB muscle fibers = experiment: Confocal calcium imaging of isolated FDB muscle fibers during fatigue protocol; assay type: in vivo, mouse; conditions: FDB fibers from treated, chronically exercised mice
Description: Confocal microscopy: Single flexor digitorum brevis (FDB) fibers were enzymatically dissociated by standard methods (Reiken, Lacampagne et al. 2003). Briefly, the muscle was dissected from the paw, placed in a modified Ringer's solution, and stripped of all fascia. Type 1 collagenase-(2 mg/ml, Sigma) in Ringer's solution was prepared fresh, and the muscle was digested for 2 hours at 37° C. in a incubator shaking at 125 rpm. The muscle was placed in fresh Ringer's and gently triturated. Single fibers were collected and allowed to attach to glass coverslips coated in laminin (Sigma L-2020). The cells were loaded with 2 μM fluo-4-AM ester (Invitrogen) for 20 minutes, placed on the Zeiss Live 5 microscope stage and superfused for 15 minutes with Ringer's. The fibers were paced at 1 Hz for 10 minutes prior to imaging baseline fiber properties. Linescan images were continuously acquired at 1 ms scan rate during a tetanic sequence consisting of 300 ms stimulation at 100 Hz with a 2 Hz train rate. Images were analyzed in ImageJ, and an F/F0 ratio was calculated for each fiber.
Reduced fatiguability in calstabin1 rebound FDB muscle fibers: Flexor digitorum brevis (FDB) muscle fibers were enzymatically dissociated from mice following the chronic exercise protocol and loaded with the calcium indicator fluo-4. […] The kinetics of Ca^2+ release and reuptake during single twitches at 1 Hz were assessed.

calpain = experiment: Calpain activity in mdx mouse muscular dystrophy model during exercise; assay type: in vivo; conditions: mdx mice, 0.125 mg/kg/h for 28 days, downhill treadmill
Description: After treatment, the mice were subjected to downhill (14° angel) treadmill running for 30 min at 18 m/min. Immediately after the exercise, the animals were sacrificed and the skeletal muscles were harvested.
Preparation of EDL Homogenates: EDL muscles homogenates were prepared in 0.5 ml of homogenization buffer (20 mM NaF, 10 mM Tris-maleate, pH7.2+protease inhibitors). […] sarcoplasmic reticulum (CSR) fractions were obtained by centrifuging the homogenates at 50,000×g for 30 min. Homogenates were centrifuged at 4000×g for 20 min and the supernatants were centrifuged for 20 min at 10000×g. Aliquots of the homogenates were assayed for protein concentration and stored at −80° C.
Calpain Activity Assay: Calpain activity of EDL homogenates (30 μg) were measured using a Calpain Activity Assay kit (Calbiochem). The assay utilizes a synthetic calpain substrate, suc-LLVY-AMC. AMC is released upon cleavage with calpain and is measured fluorometrically. Assays are performed with both an activation and an inhibition buffer to determine specific calpain activity in the sample.

hERG current = hERG current (Homo sapiens, UniProt Q12809); experiment: hERG current, PatchXpress 7000A automatic parallel patch clamp in hERG-transfected HEK 293 cells (Example 6); conditions: for Individual Data (% Inhibition): single cell
Description: HEK293 cells were transfected with a plasmid containing the hERG cDNA and a neomycin resistance gene. Stable transfectants were selected by culturing the cells in the presence of G418. The selection pressure was maintained by continued culture in the presence of G418. […] Cells for use in electrophysiology were cultured in 35 mm dishes.
Onset and steady state block of hERG current was measured using a pulse pattern with fixed amplitudes (conditioning prepulse: +20 mV for 2 seconds; test pulse: −50 mV for 2 seconds) repeated at 10 second intervals, from a holding potential of −80 mV. Peak tail current was measured during the 2 second step to −50 mV. A steady state was maintained for at least 30 seconds before applying the test compound or the positive control. Peak tail current was monitored until a new steady state was achieved. Test compound concentrations were applied cumulatively in ascending order without washout between applications.
Data acquisition and analysis was performed using the suite of pCLAMP (Vre. 8.2) programs (Axon Instruments, Union City, Calif.). Steady state was defined by the limiting constant rate of change with time (linear time dependence). The steady state before and after application of the test or control compounds was used to calculate the percentage of current inhibited at each concentration. […] Nonlinear squares fits were solved with the Solver add-in for Excel 2000 (Microsoft, Redmond, Wash.).
Multiple compounds of the invention were tested for their effects on hERG currents. The compounds tested were: ARM036-Na, ARM047, ARM048, ARM050, ARM057, ARM064, ARM074, ARM075, ARM076, ARM077, ARM101, ARM102, ARM103, ARM104, ARM106, ARM107 and ARM26. […] Electrophysiological recordings were made using the PatchXpress 7000 A (Molecular Devices) automatic parallel patch clamp system. […] The duration of exposure to each test concentration was 5 minutes.

RyR = experiment: Calstabin binding to RyR in brain after isoproterenol infusion (RyR immunoprecipitation, western blot)
Description: Tissue lysates were prepared by homogenizing the tissue (e.g., brain, cardiac, muscle) with Tissuemiser in 0.7 ml lysis buffer (pH 7.4, 10 mM HEPES, 1 mM EDTA, 20 mM NaF, 2 mM Na3 VO4, 320 mM sucrose, and protease inhibitors) and centrifuged for 15 min at 4,000×g at 4° C. The supernatant was then centrifuged for 15 min at 10,000×g at 4° C. For brain homogenates, the supernatant was centrifuged at 50,000×g at 4° C. for 30 minutes, and the pellet (microsomes) was resuspended in homogenization buffer which was supplemented with 0.9% NaCl. For brain tissue, the resuspended pellet was used for immunoprecipitation of RyR. For cardiac and muscle tissue homogenates, the supernatant of the 10,000×g spin was used for immunoprecipitation of the RyR. Protein concentrations were measured by Bradford protein assay. The sample was frozen at −80° C. until use.
100 μg of microsomes were brought to a volume of 500 μl with modified RIP A buffer (50 mM Tris-HCl (PH 7.4), 0.9% NaCl, 5.0 mM NaF, 1.0 mM Na3VO4, 0.5% TritonX100, and protease inhibitors). […]
Experiments were performed to determine whether the compounds described herein cross the blood brain barrier and enhance binding of cal stab in to ryanodine receptors in the brain. […] RyR was immunoprecipitated using an antibody to RyR, and the presence of calstabin in the immunoprecipitates was detected using an antibody to calstabin.

hERG potassium current = hERG potassium current (Homo sapiens, UniProt Q12809); experiment: S107 specificity: hERG potassium current; conditions: 500 nM
Chain of hERG potassium current (Q12809 whole entry): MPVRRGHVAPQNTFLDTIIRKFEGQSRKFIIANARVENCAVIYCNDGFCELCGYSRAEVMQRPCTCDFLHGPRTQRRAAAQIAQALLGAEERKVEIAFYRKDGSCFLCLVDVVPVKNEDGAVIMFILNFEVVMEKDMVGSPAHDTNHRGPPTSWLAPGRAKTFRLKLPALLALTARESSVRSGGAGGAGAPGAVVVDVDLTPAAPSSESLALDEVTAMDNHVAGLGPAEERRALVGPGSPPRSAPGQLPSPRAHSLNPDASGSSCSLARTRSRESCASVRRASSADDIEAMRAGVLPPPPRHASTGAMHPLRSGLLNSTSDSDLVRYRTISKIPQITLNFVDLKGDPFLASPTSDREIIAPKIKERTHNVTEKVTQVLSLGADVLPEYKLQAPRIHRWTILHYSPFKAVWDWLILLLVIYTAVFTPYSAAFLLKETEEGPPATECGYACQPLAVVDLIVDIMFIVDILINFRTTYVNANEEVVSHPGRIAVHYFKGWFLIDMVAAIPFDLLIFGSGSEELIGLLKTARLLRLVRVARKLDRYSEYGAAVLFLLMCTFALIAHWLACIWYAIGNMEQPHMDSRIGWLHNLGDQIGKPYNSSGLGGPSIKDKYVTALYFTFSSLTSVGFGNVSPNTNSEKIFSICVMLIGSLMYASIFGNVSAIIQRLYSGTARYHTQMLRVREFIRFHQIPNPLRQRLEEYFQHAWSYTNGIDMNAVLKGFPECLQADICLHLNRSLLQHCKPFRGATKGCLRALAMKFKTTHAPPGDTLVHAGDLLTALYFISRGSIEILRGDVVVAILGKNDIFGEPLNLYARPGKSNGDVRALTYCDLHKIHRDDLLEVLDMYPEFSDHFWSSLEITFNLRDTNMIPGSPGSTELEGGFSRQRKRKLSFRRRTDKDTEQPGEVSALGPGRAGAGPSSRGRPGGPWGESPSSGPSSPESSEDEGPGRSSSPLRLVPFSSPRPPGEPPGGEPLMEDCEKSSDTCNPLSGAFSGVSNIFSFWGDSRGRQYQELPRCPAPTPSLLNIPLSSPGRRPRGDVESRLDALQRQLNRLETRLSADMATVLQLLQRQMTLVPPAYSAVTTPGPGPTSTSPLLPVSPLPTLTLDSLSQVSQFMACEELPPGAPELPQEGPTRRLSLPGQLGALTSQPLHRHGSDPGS

Chain of hERG current (Q12809 whole entry): as above

COc1ccc2c(c1)CN(C(=O)C(=O)O)CCS2 [S36]
Heart weight to body weight (HW/BW) ratio (Wild-type mice): reverse remodeling | pressure-volume loop quantification (dP/dt) (Wild-type mice): improved cardiac contractility

COc1ccc2c(c1)CN(C)CCS2 [S107]
peak tetanic calcium transients during fatigue protocol (FDB muscle fibers): delayed decline in peak tetanic calcium transients | calpain activity (calpain): reduces calpain activity | Mean % hERG Inhibition (hERG current; 0.01 μM): 2.9% | Individual Data (% Inhibition) (hERG current; 0.01 μM, listed as ARM107, 0.01 µM): 1.7% and 4.0% | Mean % hERG Inhibition (hERG current; 0.1 μM): 4.0% | Individual Data (% Inhibition) (hERG current; 0.1 μM, listed as ARM107, 0.1 µM): 3.1% and 4.8% | Mean % hERG Inhibition (hERG current; 1 μM): 6.2% | Individual Data (% Inhibition) (hERG current; 1 μM, listed as ARM107, 1 µM): 2.0% and 10.4% | Mean % hERG Inhibition (hERG current; 10 μM): 32.1% | Individual Data (% Inhibition) (hERG current; 10 μM, listed as ARM107, 10 µM): 24.2% and 39.9% | hERG current inhibition at the highest concentration tested (hERG current; highest concentration tested (10 μM)): less than 50% | blood brain barrier penetration (RyR; mice): crosses the blood brain barrier | in vivo binding of calstabin to RyR (RyR; mid-brain and cerebellum, after isoproterenol infusion for 5 days): restores in vivo binding of calstabin to RyR | effect on hERG potassium current (hERG potassium current): not to affect
